# Experimental data published in PMC9098913, “In vitro reconstitution of Escherichia coli divisome activation” (Nature Communications, 2022).
# Experiment: Diffusion coefficient (Dcoeff) of FtsA from FRAP
# Conditions: for Diffusion Coefficient, mean: Fig. 3j; for Dcoeff: Fig. S3i/S3j
# Description: We could also use the data from these bleaching experiments to quantify the membrane-binding kinetics and diffusion of membrane-bound proteins by analysing the change of the fluorescence profile during recovery.
# Equimolar concentrations of Cy3- and Cy5-labelled FtsA, supplemented with 20% unlabelled FtsA were used to study FRET and FRAP. Five pre-bleach frames were acquired, followed by acceptor photobleaching of a rectangular ROI with 40% 641 nm laser power and a dwell size of 1 µs/pixel, 75% overlapping lines. The recovery of the signal or the increase in donor intensity were measured with either two frames or one frame per second.
# Bleaching the acceptor dye leads to an increase in the donor intensity, which can be used to quantify the Foerster Resonance energy transfer (FRET)[48]. FRET efficiency was quantified with E%=Ipost/Ipost+Ipre⋅100 , where Ipost is the intensity of the […] and Ipre is the […]. […] To extract the contribution of both processes, we adjusted a routine recently published by Gerganova et al.[33]. In short, the code provides the contribution of both modes of recovery by analysing the shape of the fluorescence recovery profile. […] Contribution of diffusion leads to a change of the slope of the outer borders of the bleached region (S4h right). Thus, by measuring the change of the slope of the border recovery, diffusion and simple on/off binding can be distinguished. We developed “FRAPdiff”, a graphical user interface, which uses the original fit routine by David Rutkowski. It can be used directly on.tiff movies with annotated bleach regions as ImageJ ROIs. In addition, we added optional bleach correction, user selectable projection axis (x or y), and optional mirroring of the recovery profiles, if bleaching was not symmetric. The original fit routine for estimating the recovery and diffusion dynamics can be found at https://github.com/davidmrutkowski/1DReflectingDiffusion. FRAPdiff is available at 10.5281/zenodo.6400639[49] under the GPLv3 open-source license.
substance,measurement,setting,value
"FtsA WT: wild-type E. coli actin-homologue FtsA, membrane anchor of FtsZ",Diffusion Coefficient,"0.2µM, + FtsZ, replicate Exp.4",4.01E-02
same,Diffusion Coefficient,"0.2µM, + FtsZ, replicate Exp.5",7.03E-05
same,Diffusion Coefficient,"0.2µM, + FtsZ, replicate Exp.6",2.65E-03
same,Diffusion Coefficient,"0.2µM, + FtsZ, replicate Exp.7",9.70E-04
same,"Diffusion Coefficient, mean",0.4 µM FtsA + N,1.74E-03 µm2/s
same,"Diffusion Coefficient, mean",0.4 µM FtsA + Z&N,1.31E-03 µm2/s
same,"Diffusion Coefficient, mean",0.4 µM FtsA + Z,9.28E-04 µm2/s
same,Diffusion Coefficient,"0.4µM FtsA alone, Mean, n=18 (WT), 9 (R286W)",0.0094
same,"Diffusion Coefficient, mean",0.4 µM FtsA alone,9.38E-03 µm2/s
same,Diffusion Coefficient,"0.4µM FtsA alone, replicate Exp.1",1.66E-03
same,Diffusion Coefficient,"0.4µM FtsA alone, replicate Exp.10",2.61E-04
same,Diffusion Coefficient,"0.4µM FtsA alone, replicate Exp.11",2.61E-03
same,Diffusion Coefficient,"0.4µM FtsA alone, replicate Exp.12",1.80E-02
same,Diffusion Coefficient,"0.4µM FtsA alone, replicate Exp.13",3.92E-03
same,Diffusion Coefficient,"0.4µM FtsA alone, replicate Exp.14",4.91E-02
same,Diffusion Coefficient,"0.4µM FtsA alone, replicate Exp.15",1.40E-02
same,Diffusion Coefficient,"0.4µM FtsA alone, replicate Exp.16",4.71E-05
same,Diffusion Coefficient,"0.4µM FtsA alone, replicate Exp.17",6.43E-03
same,Diffusion Coefficient,"0.4µM FtsA alone, replicate Exp.18",3.05E-04
same,Diffusion Coefficient,"0.4µM FtsA alone, replicate Exp.2",7.21E-03
same,Diffusion Coefficient,"0.4µM FtsA alone, replicate Exp.3",3.35E-02
same,Diffusion Coefficient,"0.4µM FtsA alone, replicate Exp.4",6.07E-07
same,Diffusion Coefficient,"0.4µM FtsA alone, replicate Exp.5",4.86E-04
same,Diffusion Coefficient,"0.4µM FtsA alone, replicate Exp.6",1.29E-02
same,Diffusion Coefficient,"0.4µM FtsA alone, replicate Exp.7",1.54E-02
same,Diffusion Coefficient,"0.4µM FtsA alone, replicate Exp.8",3.15E-04
same,Diffusion Coefficient,"0.4µM FtsA alone, replicate Exp.9",2.76E-03
same,Diffusion Coefficient,"0.4 µM FtsA, FRAP, p-value […] 10^−6",0.01 ± 0.01 µm^2/s
same,Diffusion Coefficient,"0.4µM, + FtsN&Z, Mean, n=6 (WT), 9 (R286W)",0.0013
same,Diffusion Coefficient,"0.4µM, + FtsN&Z, replicate Exp.1",7.97E-04
same,Diffusion Coefficient,"0.4µM, + FtsN&Z, replicate Exp.2",2.09E-03
same,Diffusion Coefficient,"0.4µM, + FtsN&Z, replicate Exp.3",9.40E-04
same,Diffusion Coefficient,"0.4µM, + FtsN&Z, replicate Exp.4",3.16E-04
same,Diffusion Coefficient,"0.4µM, + FtsN&Z, replicate Exp.5",3.44E-03
same,Diffusion Coefficient,"0.4µM, + FtsN&Z, replicate Exp.6",3.02E-04
same,Diffusion Coefficient,"0.4µM, + FtsN, Mean, n=5 (WT), 6 (R286W)",0.0017
same,Diffusion Coefficient,"0.4µM, + FtsN, replicate Exp.1",1.54E-03
same,Diffusion Coefficient,"0.4µM, + FtsN, replicate Exp.2",2.97E-03
same,Diffusion Coefficient,"0.4µM, + FtsN, replicate Exp.3",2.28E-03
same,Diffusion Coefficient,"0.4µM, + FtsN, replicate Exp.4",1.80E-03
same,Diffusion Coefficient,"0.4µM, + FtsN, replicate Exp.5",1.27E-04
same,Diffusion Coefficient,"0.4µM, + FtsZ, Mean, n=5 (WT), 8 (R286W)",0.0009
same,Diffusion Coefficient,"0.4µM, + FtsZ, replicate Exp.1",1.81E-03
same,Diffusion Coefficient,"0.4µM, + FtsZ, replicate Exp.2",9.21E-04
same,Diffusion Coefficient,"0.4µM, + FtsZ, replicate Exp.3",2.54E-06
same,Diffusion Coefficient,"0.4µM, + FtsZ, replicate Exp.4",1.48E-07
same,Diffusion Coefficient,"0.4µM, + FtsZ, replicate Exp.5",1.91E-03
same,"Diffusion Coefficient, mean",0.8 µM FtsA + N,2.78E-04 µm2/s
same,"Diffusion Coefficient, mean",0.8 µM FtsA + Z&N,1.55E-03 µm2/s
same,"Diffusion Coefficient, mean",0.8 µM FtsA + Z,1.98E-04 µm2/s
same,Diffusion Coefficient,"0.8µM FtsA alone, Mean, n=19 (WT), 8 (R286W)",0.0008
same,"Diffusion Coefficient, mean",0.8 µM FtsA alone,8.23E-04 µm2/s
same,Diffusion Coefficient,"0.8µM FtsA alone, replicate Exp.1",7.29E-03
same,Diffusion Coefficient,"0.8µM FtsA alone, replicate Exp.10",4.22E-07
same,Diffusion Coefficient,"0.8µM FtsA alone, replicate Exp.11",6.76E-05
same,Diffusion Coefficient,"0.8µM FtsA alone, replicate Exp.12",1.41E-04
same,Diffusion Coefficient,"0.8µM FtsA alone, replicate Exp.13",9.30E-04
same,Diffusion Coefficient,"0.8µM FtsA alone, replicate Exp.14",4.15E-06
same,Diffusion Coefficient,"0.8µM FtsA alone, replicate Exp.15",1.75E-03
same,Diffusion Coefficient,"0.8µM FtsA alone, replicate Exp.16",1.00E-03
same,Diffusion Coefficient,"0.8µM FtsA alone, replicate Exp.17",1.78E-04
same,Diffusion Coefficient,"0.8µM FtsA alone, replicate Exp.18",3.36E-03
same,Diffusion Coefficient,"0.8µM FtsA alone, replicate Exp.19",2.24E-04
same,Diffusion Coefficient,"0.8µM FtsA alone, replicate Exp.2",2.12E-04
same,Diffusion Coefficient,"0.8µM FtsA alone, replicate Exp.3",6.52E-08
same,Diffusion Coefficient,"0.8µM FtsA alone, replicate Exp.4",1.44E-04
same,Diffusion Coefficient,"0.8µM FtsA alone, replicate Exp.5",5.47E-08
same,Diffusion Coefficient,"0.8µM FtsA alone, replicate Exp.6",4.93E-07
same,Diffusion Coefficient,"0.8µM FtsA alone, replicate Exp.7",2.75E-04
same,Diffusion Coefficient,"0.8µM FtsA alone, replicate Exp.8",6.96E-06
same,Diffusion Coefficient,"0.8µM FtsA alone, replicate Exp.9",4.32E-05
same,Diffusion Coefficient,"0.8µM, + FtsN&Z, Mean, n=5 (WT), 4 (R286W)",0.0015
same,Diffusion Coefficient,"0.8µM, + FtsN&Z, replicate Exp.1",2.13E-03
same,Diffusion Coefficient,"0.8µM, + FtsN&Z, replicate Exp.2",1.07E-06
same,Diffusion Coefficient,"0.8µM, + FtsN&Z, replicate Exp.3",6.03E-04
same,Diffusion Coefficient,"0.8µM, + FtsN&Z, replicate Exp.4",3.04E-03
same,Diffusion Coefficient,"0.8µM, + FtsN&Z, replicate Exp.5",1.98E-03
same,Diffusion Coefficient,"0.8µM, + FtsN, Mean, n=4 (WT), 3 (R286W)",0.000278
same,Diffusion Coefficient,"0.8µM, + FtsN, replicate Exp.1",2.14E-05
same,Diffusion Coefficient,"0.8µM, + FtsN, replicate Exp.2",6.16E-05
same,Diffusion Coefficient,"0.8µM, + FtsN, replicate Exp.3",1.34E-04
same,Diffusion Coefficient,"0.8µM, + FtsN, replicate Exp.4",8.93E-04
same,Diffusion Coefficient,"0.8µM, + FtsZ, Mean, n=3 (WT), 8 (R286W)",0.0002
same,Diffusion Coefficient,"0.8µM, + FtsZ, replicate Exp.1",7.26E-07
same,Diffusion Coefficient,"0.8µM, + FtsZ, replicate Exp.2",4.83E-04
same,Diffusion Coefficient,"0.8µM, + FtsZ, replicate Exp.3",1.10E-04
same,Dcoeff,"0.10 µM FtsA, replicate 1",5.58E-02 µm2/s
same,Dcoeff,"0.10 µM FtsA, replicate 2",3.42E-03 µm2/s
same,Dcoeff,"0.10 µM FtsA, replicate 3",1.87E-02 µm2/s
same,Dcoeff,"0.10 µM FtsA, replicate 4",5.22E-02 µm2/s
same,Dcoeff,"0.10 µM FtsA, summary value",2.68E-02 µm2/s
same,Dcoeff,"0.20 µM FtsA, summary value",1.77E-02 µm2/s
same,Dcoeff,"0.40 µM FtsA, summary value",9.38E-03 µm2/s
same,Dcoeff,"0.80 µM FtsA, summary value",8.23E-04 µm2/s
